Results published in patent publication US20090053278A1, “ANTI-MICROBIAL COMPOSITIONS AND DEVICES AND METHODS OF USING THE SAME” (priority 2006, published 2009).
In brackets after ≈: the same amount, converted by molar mass. Where a SMILES comes first, the peptide text is derived from it.

What was measured:
[1] = tested on: Staphylococcus aureus (University of Calgary clinical isolate, strain 2645) grown as a biofilm; assay: MBEC of biofilm, MBEC device, 24 hour exposure; assay type: cell-based; conditions: S. aureus biofilm, 10% MHB in PBS
Text: (§1) The procedure provided describes an assay for testing 2 organisms (S. epidermidis and S. aureus) grown as a biofilm against 2 antimicrobial agents (gentamicin and an eCAP peptide) using a 96 well microtitre plate. The procedure will allow one to compare the MIC and MBEC values for each organism against each antimicrobial agent and against each other.
(§2) Microorganisms used were Staphylococcus epidermididis (RP62A; “Christensen Strain”) and Staphylococcus aureus (University of Calgary clinical isolate, strain 2645).
(§3) One set of test panels as shown above was prepared for each organism to determine the MIC and MBEC after a 24 hour exposure to each test material. SC wells are sterility controls for each experiment. GC is the growth control for each row. The working solution of gentamicin was 3 μmol/ml and 1 μmol/ml for eCAP. No SEM samples were taken for analysis due to test material shortage.
(§4) A working solution of eCAP or Gentamicin (1 μMoles/mL and 3 μMoles/mL respectively) was made in 10% MHB in sterile PBS. 200 μl of 10% MHB was added to ‘column’ 12 to serve as sterility controls (SC) and growth controls (GC) for each organism. 100 μl of 10% MHB was added to ‘columns’ 2 to 11. 200 μl of the appropriate working solution was added to ‘column’ 1 of the microtitre plate. 100 μl of the appropriate working solution was added to ‘column’ 2 and ‘column’ 3 of the microtitre plate. Using the multichannel micropipette, the contents of ‘column’ 3 was mixed by pipetting up and down. After mixing, 100 μl was transferred from the wells in ‘column’ 3 to the corresponding wells in ‘column’ 4. This was repeated until reaching ‘column’ 1. Using a pipet, 100 μl from each well in ‘column’ 11 was ejected. 100 μl of growth media was then added to all wells except A1 to H1, A2 to H2, and A12 to H12.
Antimicrobial Challenge of Biofilm: Rinse plate(s) of saline (200 μL per well) were prepared. Planktonic cells from biofilm that had formed on the lid of the MBEC device were rinsed by dipping the lid into the saline for 1-2 minutes. The lid was transferred to the challenge plate and incubated at 37° C. for 24 hours on a gyrating platform set at approximately 150 rpm.
Recovery of Surviving Biofilm: Rinse plate(s) of 0.9% sterile saline (200 μL per well) were prepared in a sterile 96 well micro titre plate. Pegs were rinsed in 0.9% sterile saline for 1 to 2 minutes. […] The recovery plates were incubated at 37° C. for 24 hours and read using the plate ready to determine MBEC values.
(§5) Therefore, 10% MHB was used as a diluent instead of TSB. […] The MIC and MBEC values were determined as the dilution immediately before the concentration where growth was first observed, as depicted in Table 9 below.

[2] = tested on: Staphylococcus epidermididis (RP62A; "Christensen Strain"); assay: Planktonic MIC, MBEC device, 24 hour exposure; assay type: cell-based, Staphylococcus epidermidis; conditions: S. epidermidis, 10% MHB in PBS
Text: as §1, §2, §3
as §4, with “This was repeated until reaching ‘column’ 1. Using a pipet, 100 μl from each well in ‘column’ 11 was ejected. 100 μl of growth media was then added to all wells except A1 to H1, A2 to H2, and A12 to H12.” left out
Determination of Planktonic MIC: The challenge plate was incubated at 37° C. for 24 hours and read using a plate reader to determine MIC values. The MIC (minimum inhibitory concentration) was determined for compound eCAP/gentamicin for each organism shed from the biofilm during the challenge incubation. […]
as §5

[3] = tested on: Staphylococcus epidermididis (RP62A; "Christensen Strain") grown as a biofilm; assay: MBEC of biofilm, MBEC device, 24 hour exposure; assay type: cell-based, Staphylococcus epidermidis; conditions: S. epidermidis biofilm, 10% MHB in PBS, listed as eCAP sterilized by ethylene oxide
Text: as §1, §2
as §3, with “shortage. […]” for “shortage.”
Recovery of Surviving Biofilm: Rinse plate(s) of 0.9% sterile saline (200 μL per well) were prepared in a sterile 96 well micro titre plate. […] The recovery plates were incubated at 37° C. for 24 hours and read using the plate ready to determine MBEC values.
as §5

[4] = tested on: Enterococcis faecalis; assay: in-vitro assay of peptide-coated plastic endodontic obturators; assay type: cell-based; conditions: peptide immobilized on plastic obturators; data not shown
Text: Medical standard plastic endodontic obturators were coated with an antimicrobial peptide. […] The obturators were coated with a tie layer. A parylene coating containing a reactive molecule specific for the N-terminus region of the peptide (“Photopolymer”) was then applied over the tie layer. The peptide WLBU-2 (SEQ ID NO. 179) was applied to the parylene coating and exposed to UV light to facilitate covalent bonding of the peptide with the parylene coating. Non-coated obturators were used as controls. All samples and controls were subjected to ethylene oxide sterilization. The coated samples were placed in 75% relative humidity overnight.

[5] = antimicrobial activity retained after sterilization
Text: In a useful embodiment of the present invention, the antimicrobial peptides may retain antibacterial activity after a device coated with the antimicrobial peptide is sterilized.

[6] = listed as eCAP sterilized by ethylene oxide

In the case of `CC(C)[C@H](NC(=O)[C@H](Cc1c[nH]c2ccccc12)NC(=O)[C@H](CCCNC(=N)N)NC(=O)[C@H](CCCNC(=N)N)NC(=O)[C@@H](NC(=O)[C@@H](NC(=O)[C@H](CCCNC(=N)N)NC(=O)[C@@H](NC(=O)[C@@H](NC(=O)[C@H](CCCNC(=N)N)NC(=O)[C@H](CCCNC(=N)N)NC(=O)[C@H](Cc1c[nH]c2ccccc12)NC(=O)[C@@H](NC(=O)[C@H](CCCNC(=N)N)NC(=O)[C@H](CCCNC(=N)N)NC(=O)[C@@H](NC(=O)[C@H](CCCNC(=N)N)NC(=O)[C@H](CCCNC(=N)N)NC(=O)[C@@H](NC(=O)[C@H](Cc1c[nH]c2ccccc12)NC(=O)[C@H](CCCNC(=N)N)NC(=O)[C@@H](N)CCCNC(=N)N)C(C)C)C(C)C)C(C)C)C(C)C)C(C)C)C(C)C)C(C)C)C(=O)N[C@@H](CCCNC(=N)N)C(=O)N[C@@H](CCCNC(=N)N)C(=O)O` [Ethylene oxide eCAP] (H-RRWVRRVRRVWRRVVRVVRRWVRR-OH; N-terminus and C-terminus assumed), the MBEC [1, 6] was “approximately 0.0039 μmol/ml”, the MIC [2, 6] was 3.9 µM (≈ 13.3 µg/mL) and the MBEC [3] was 0.0078 µmol/mL.

With `CC(C)[C@H](NC(=O)[C@H](Cc1c[nH]c2ccccc12)NC(=O)[C@H](CCCNC(=N)N)NC(=O)[C@H](CCCNC(=N)N)NC(=O)[C@@H](NC(=O)[C@@H](NC(=O)[C@H](CCCNC(=N)N)NC(=O)[C@@H](NC(=O)[C@@H](NC(=O)[C@H](CCCNC(=N)N)NC(=O)[C@H](CCCNC(=N)N)NC(=O)[C@H](Cc1c[nH]c2ccccc12)NC(=O)[C@@H](NC(=O)[C@H](CCCNC(=N)N)NC(=O)[C@H](CCCNC(=N)N)NC(=O)[C@@H](NC(=O)[C@H](CCCNC(=N)N)NC(=O)[C@H](CCCNC(=N)N)NC(=O)[C@@H](NC(=O)[C@H](Cc1c[nH]c2ccccc12)NC(=O)[C@H](CCCNC(=N)N)NC(=O)[C@@H](N)CCCNC(=N)N)C(C)C)C(C)C)C(C)C)C(C)C)C(C)C)C(C)C)C(C)C)C(=O)N[C@@H](CCCNC(=N)N)C(=O)N[C@@H](CCCNC(=N)N)C(=O)O` [High dose Irradiated eCAP] (H-RRWVRRVRRVWRRVVRVVRRWVRR-OH; N-terminus and C-terminus assumed) the MBEC ([1]; listed as eCAP sterilized by high dose irradiation) was “approximately 0.016 μmol/ml”.

With `CC(C)[C@H](NC(=O)[C@H](Cc1c[nH]c2ccccc12)NC(=O)[C@H](CCCNC(=N)N)NC(=O)[C@H](CCCNC(=N)N)NC(=O)[C@@H](NC(=O)[C@@H](NC(=O)[C@H](CCCNC(=N)N)NC(=O)[C@@H](NC(=O)[C@@H](NC(=O)[C@H](CCCNC(=N)N)NC(=O)[C@H](CCCNC(=N)N)NC(=O)[C@H](Cc1c[nH]c2ccccc12)NC(=O)[C@@H](NC(=O)[C@H](CCCNC(=N)N)NC(=O)[C@H](CCCNC(=N)N)NC(=O)[C@@H](NC(=O)[C@H](CCCNC(=N)N)NC(=O)[C@H](CCCNC(=N)N)NC(=O)[C@@H](NC(=O)[C@H](Cc1c[nH]c2ccccc12)NC(=O)[C@H](CCCNC(=N)N)NC(=O)[C@@H](N)CCCNC(=N)N)C(C)C)C(C)C)C(C)C)C(C)C)C(C)C)C(C)C)C(C)C)C(=O)N[C@@H](CCCNC(=N)N)C(=O)N[C@@H](CCCNC(=N)N)C(=O)O` [Low dose irradiated eCAP] (H-RRWVRRVRRVWRRVVRVVRRWVRR-OH; N-terminus and C-terminus assumed) the MBEC ([1]; listed as eCAP sterilized by low dose irradiation) was “approximately 0.063 μmol/ml”.

In the case of `CC(C)[C@H](NC(=O)[C@H](Cc1c[nH]c2ccccc12)NC(=O)[C@H](CCCNC(=N)N)NC(=O)[C@H](CCCNC(=N)N)NC(=O)[C@@H](NC(=O)[C@@H](NC(=O)[C@H](CCCNC(=N)N)NC(=O)[C@@H](NC(=O)[C@@H](NC(=O)[C@H](CCCNC(=N)N)NC(=O)[C@H](CCCNC(=N)N)NC(=O)[C@H](Cc1c[nH]c2ccccc12)NC(=O)[C@@H](NC(=O)[C@H](CCCNC(=N)N)NC(=O)[C@H](CCCNC(=N)N)NC(=O)[C@@H](NC(=O)[C@H](CCCNC(=N)N)NC(=O)[C@H](CCCNC(=N)N)NC(=O)[C@@H](NC(=O)[C@H](Cc1c[nH]c2ccccc12)NC(=O)[C@H](CCCNC(=N)N)NC(=O)[C@@H](N)CCCNC(=N)N)C(C)C)C(C)C)C(C)C)C(C)C)C(C)C)C(C)C)C(C)C)C(=O)N[C@@H](CCCNC(=N)N)C(=O)N[C@@H](CCCNC(=N)N)C(=O)O` [WLBU-2, RRWVRRVRRVWRRVVRVVRRWVRR] (H-RRWVRRVRRVWRRVVRVVRRWVRR-OH; N-terminus and C-terminus assumed), the MIC ([2]; listed as eCAP) was 3.9 µM (≈ 13.3 µg/mL), the “efficacy against Enterococcis faecalis of immobilized peptide” value [4] was “efficacy against Enterococcis faecalis” and the “effect of sterilization methods on antimicrobial activity” value ([5]; high and low dose gamma radiated and ethylene oxide, MIC/MBEC against S. aureus and S. epidermidis) was “not detrimental to its antimicrobial activity”. For the same molecule, the “antimicrobial activity after ethylene oxide sterilization” value ([5]; peptide coated on a substrate) was “retained antimicrobial activity”.

Molecule Gentamicin [reference compound] has an MBEC [1] of 1.5 µmol/mL and an MIC [2] of 1500 µM.
